# Laboratory results reported in patent US20200370056A1, “CELL LINES AND METHODS FOR INCREASED PROTEIN PRODUCTION” (ASTRAZENECA AB, priority 2017, published 2020).
# Legend:
# HEK293 PLAP cell line = assay: PLAP expression by secreted enzymatic activity (p-Nitrophenyl phosphate, 405 nm); format: cell-based; conditions: Homo sapiens, PLAP model protein, enzymatic activity readout, read-out: pAC50 for Improved Protein Expression, PLAP (converted)
# Experimental: An additional study was performed on different cells expressing GRFα2 and PLAP. The same assay performed on HEk293 CriptoFC 1B8 was performed on a cell line containing a single gene copy of GFRA2. […] The activity measurement for PLAP is based on the degradation of p-Nitrophenyl phosphate to p-Nitrophenyl which can be followed as an increase in absorbance at 405 nm.
# [1] = tested on: HEK293 CriptoFC 1B8 cell line; assay: Cripto-FC expression by flow cytometry, concentration response; format: cell-based; conditions: Homo sapiens, Cripto-FC model protein, 10 point concentration response, top concentration 6 μM, read-out: pAC50 for Improved Protein Expression, Cripto-FC (converted)
# Experimental: Human Embryonic Kidney (HEK) cells, Expi293F cell line, were co-transfected using Expifectamine with vectors for targeted integration of one of three model proteins, Cripto-Fc, PLAP and hGFRα2, and a vector expressing Zinc Finger Nucelases that target the AAVS1 locus in the genome. As shown below in Table 3, Cripto-Fc served as a high volume expressing protein, PLAP a medium expressing protein, and hGFRα2 as a low expressing protein. After 48 hours, selection with puromycin blasticidin were applied to enrich for cells with the vectors integrated. After 14 days, cells were sorted by flow cytometry as single cells in 96 well plates. After single colonies were isolated the cells were expanded and analyzed to determine the gene copy number of the recombinant target gene in each clone. […]
# To confirm hits from the primary screen, the available positive hits were subjected to the counter screening without addition of antibody-conjugates to remove flourescent compounds. In parallel, a 10 point concentration response curve with a top concentration of 6 μM for each of the compounds was determined. Only compounds that lacked inherent fluorescence, and increased protein expression with at least 30% in a dose-dependent mariner were counted as confirmed hits. […]
# ULK1 = target: T1, ULK1 (Homo sapiens, UniProt O75385); conditions: cited from earlier work
# T1 sequence (O75385 1-1050): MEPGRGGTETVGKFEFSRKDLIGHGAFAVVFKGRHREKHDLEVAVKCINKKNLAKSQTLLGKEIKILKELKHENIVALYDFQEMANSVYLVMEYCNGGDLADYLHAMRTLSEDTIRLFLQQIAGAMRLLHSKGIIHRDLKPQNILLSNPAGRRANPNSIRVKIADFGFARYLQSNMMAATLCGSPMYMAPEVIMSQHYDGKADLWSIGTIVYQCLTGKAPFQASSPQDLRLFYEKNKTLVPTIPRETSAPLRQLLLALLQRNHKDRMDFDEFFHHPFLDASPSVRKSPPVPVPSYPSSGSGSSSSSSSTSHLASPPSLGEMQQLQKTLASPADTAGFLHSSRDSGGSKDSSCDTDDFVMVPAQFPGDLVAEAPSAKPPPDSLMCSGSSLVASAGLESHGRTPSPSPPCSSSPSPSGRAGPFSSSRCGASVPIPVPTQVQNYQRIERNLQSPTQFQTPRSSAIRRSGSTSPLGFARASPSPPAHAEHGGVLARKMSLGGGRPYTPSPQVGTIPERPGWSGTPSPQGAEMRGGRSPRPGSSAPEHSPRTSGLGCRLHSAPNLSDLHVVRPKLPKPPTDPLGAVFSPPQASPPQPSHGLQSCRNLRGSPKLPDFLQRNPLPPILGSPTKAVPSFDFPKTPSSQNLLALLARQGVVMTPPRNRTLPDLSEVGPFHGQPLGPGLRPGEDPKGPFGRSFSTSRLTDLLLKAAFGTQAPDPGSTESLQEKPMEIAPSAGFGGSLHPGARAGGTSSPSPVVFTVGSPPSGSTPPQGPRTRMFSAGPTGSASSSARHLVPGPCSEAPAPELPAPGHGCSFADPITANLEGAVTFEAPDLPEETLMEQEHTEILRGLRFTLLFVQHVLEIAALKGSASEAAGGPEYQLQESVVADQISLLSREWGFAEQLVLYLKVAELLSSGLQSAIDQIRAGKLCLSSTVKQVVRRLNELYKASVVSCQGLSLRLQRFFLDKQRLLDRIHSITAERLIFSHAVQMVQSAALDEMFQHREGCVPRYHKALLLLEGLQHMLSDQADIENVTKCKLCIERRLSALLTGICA
structure (smiles),measurement,setting,value
CN1CCc2cc(Nc3ncc(C4CC4)c(NCCCNC(=O)C4CCC4)n3)ccc2C1 [MRT68921],AC50,HEK293 PLAP cell line,60.3 nM
same,AC50,[1],79.4 nM
same,IC50,ULK1,~2.9 nM
